Data taken from patent US20080161288A1, “COMPOUNDS” (Pfizer Inc., priority 2006, published 2008).
Structures can show the parent of a compound that is named as a salt.

Experiments:
[1] = biological target: T1, bovine beta-2 adrenoceptor (Bos taurus, UniProt Q28044); experiment: cAMP assay in CHO cells transfected with the bovine beta-2 adrenoceptor; type: cell-based; settings: cAMP (DiscoveRx Hit Hunter cAMP II) in CHO cells transfected with bovine beta-2 adrenoceptor, 30 minutes with compound, 0.5 mM IBMX
T1 construct: expressed in transfected cells; host or cells: CHO cells
T1 sequence (Q28044 whole entry): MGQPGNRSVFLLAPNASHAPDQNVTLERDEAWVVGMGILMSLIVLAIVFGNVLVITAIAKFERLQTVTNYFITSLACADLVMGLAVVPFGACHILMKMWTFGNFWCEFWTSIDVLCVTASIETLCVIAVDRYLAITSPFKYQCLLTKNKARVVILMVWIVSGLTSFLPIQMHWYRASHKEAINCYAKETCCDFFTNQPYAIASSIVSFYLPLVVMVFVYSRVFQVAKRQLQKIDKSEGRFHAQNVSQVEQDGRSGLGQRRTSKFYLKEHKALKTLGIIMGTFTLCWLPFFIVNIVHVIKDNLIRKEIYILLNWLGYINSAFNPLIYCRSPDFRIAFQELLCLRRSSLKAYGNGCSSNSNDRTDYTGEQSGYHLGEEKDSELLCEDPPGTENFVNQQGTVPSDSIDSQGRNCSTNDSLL
Procedure: (§1) CHO cells transfected with the bovine or porcine beta-2 adrenceptors were maintained in culture in DMEM/HAMS F12+10% FBS+2 mM glutamine+500 μg/ml geneticin (for the porcine receptor the medium was supplement with 1.5 mM HEPES) at 37° C. with a 5% CO2 atmosphere.
(§2) Cells were plated into 96 well viewplates in medium and incubated overnight at 37° C. with a 5% CO2 atmosphere. The cells were pre-incubated with 0.5 mM IBMX in PBS for 30 minutes prior to incubation with increasing concentrations of experimental compound (5×10^−12 to 10^−5 M) for 30 minutes at 37° C. with a 5% CO2 atmosphere. At the end of the incubation time the compound was removed and the cells assayed for cAMP using the DiscoveRx Hit Hunter cAMP II™ assay kit.
(§3) Duplicate samples were run for each experimental compound and the data generated was analysed using EC50 analysis software in Graphpad Prism.

[2] = biological target: T2, porcine beta-2 adrenoceptor (Sus scrofa, UniProt Q28997); experiment: cAMP assay in CHO cells transfected with the porcine beta-2 adrenoceptor; type: cell-based; settings: cAMP (DiscoveRx Hit Hunter cAMP II) in CHO cells transfected with porcine beta-2 adrenoceptor, 30 minutes with compound, 0.5 mM IBMX
T2 construct: expressed in transfected cells; host or cells: CHO cells
T2 sequence (Q28997 whole entry): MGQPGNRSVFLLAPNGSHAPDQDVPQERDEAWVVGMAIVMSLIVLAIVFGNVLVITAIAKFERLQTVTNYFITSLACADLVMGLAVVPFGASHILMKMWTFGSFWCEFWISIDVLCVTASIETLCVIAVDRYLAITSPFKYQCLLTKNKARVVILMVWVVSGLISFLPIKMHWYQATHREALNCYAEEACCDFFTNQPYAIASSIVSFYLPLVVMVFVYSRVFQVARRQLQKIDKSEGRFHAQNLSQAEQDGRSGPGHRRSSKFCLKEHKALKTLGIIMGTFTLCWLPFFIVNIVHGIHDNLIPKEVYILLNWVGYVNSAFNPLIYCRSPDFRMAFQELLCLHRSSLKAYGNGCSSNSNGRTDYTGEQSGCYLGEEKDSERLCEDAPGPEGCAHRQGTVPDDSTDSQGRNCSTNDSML
Procedure: as §1, §2, §3

EC50 [1] | EC50 [2] | Compound
2 nM | 0.9 nM | Cc1ccccc1CCC(C)N[C@@H]1CCn2c(=O)[nH]c3cccc(c32)[C@H]1O (mixture of isomers) [Example 13b, 7-hydroxy-6-{[1-Methyl-3-(2-methylphenyl)propyl]amino}-4,5,6,7-tetrahydroimidazo[4,5,1-jk][1]benzazepin-2(1H)-one]
13.3 nM | 6.6 nM | CC(C=Cc1cccc(O)c1)NC1CCn2c(=O)[nH]c3cccc(c32)C1O (centres unmarked) [Example 41, 7-Hydroxy-6-{[3-(3-hydroxyphenyl)-1-methylprop-2-en-1-yl]amino}-4,5,6,7-tetrahydroimidazo[4,5,1-jk][1]benzazepin-2(1H)-one]
33.8 nM | 28.9 nM | C[C@H](CCc1cccc(N)c1)N[C@@H]1CCn2c(=O)[nH]c3cccc(c32)[C@H]1O (single isomer, unassigned) [Example 46, 6-{[3-(3-Aminophenyl)-1-methylpropyl]amino}-7-hydroxy-4,5,6,7-tetrahydroimidazo[4,5,1-jk][1]benzazepin-2(1H)-one]
12 nM | 12.5 nM | CCC(=O)Nc1cccc(CCC(C)NC2CCn3c(=O)[nH]c4cccc(c43)C2O)c1 (single isomer, unassigned) [Example 61, N-{3-[3-{[7-Hydroxy-2-oxo-1,2,4,5,6,7-hexahydroimidazo[4,5,1-jk][1]benzazepin-6-yl]amino}butyl]phenyl}propanamide]
0.6 nM | 0.9 nM | CC(CCc1cc(Cl)ccc1O)N[C@@H]1CCn2c(=O)[nH]c3cccc(c32)[C@H]1O (single isomer, unassigned) [Example 19a, 6-{[3(5-Chloro-2-hydroxyphenyl)-1-methylpropyl]amino}-7-hydroxy-4,5,6,7-tetrahydroimidazo[4,5,1-jk][1]benzazepin-2(1H)-one]
74.7 nM | 31.5 nM | CC(CCc1cccc(NS(C)(=O)=O)c1)NC1CCn2c(=O)[nH]c3cccc(c32)C1O (single isomer, unassigned) [Example 65]
156 nM | – | CC(CCc1ccc(NS(=O)(=O)c2ccccc2)cc1)NC1CCn2c(=O)[nH]c3cccc(c32)C1O (single isomer, unassigned) [Example 67, N-{4-[3-{[7-Hydroxy-2-oxo-1,2,4,5,6,7-hexahydroimidazo[4,5,1-jk][1]benzazepin-6-yl]amino}butyl]phenyl}benzenesulfonamide]
123 nM | 101 nM | CC(CCc1cc(Cl)ccc1O)N[C@@H]1CCn2c(=O)[nH]c3cccc(c32)[C@H]1O (single isomer, unassigned) [Example 19b, 6-{[3-(5-Chloro-2-hydroxyphenyl)-1-methylpropyl]amino}-7-hydroxy-4,5,6,7-tetrahydroimidazo[4,5,1-jk][1]benzazepin-2(1H)-one]
1.2 nM | 2.3 nM | CC(CCc1cc(C#N)ccc1O)N[C@@H]1CCn2c(=O)[nH]c3cccc(c32)[C@H]1O (mixture of isomers) [Example 22, 4-Hydroxy-3-(3-{[7-hydroxy-2-oxo-1,2,4,5,6,7-hexahydroimidazo[4,5,1-jk][1]benzazepin-6-yl]amino}butyl)benzonitrile]
14 nM | 5.9 nM | CC(CCc1ccc(OCC2CC2)cc1)N[C@@H]1CCn2c(=O)[nH]c3cccc(c32)[C@H]1O (mixture of isomers) [Example 1a, 6-({3-[4-(Cyclopropylmethoxy)phenyl]-1-methylpropyl}amino)-7-hydroxy-4,5,6,7-tetrahydroimidazo[4,5,1-jk][1]benzazepin-2(1H)-one]
6.1 nM | 7.1 nM | C[C@@H](CCc1cccc(NC(=O)C(F)(F)F)c1)N[C@@H]1CCn2c(=O)[nH]c3cccc(c32)[C@H]1O (single isomer, unassigned) [Example 57, 2,2,2-Trifluoro-N-{3-[3-{[7-hydroxy-2-oxo-1,2,4,5,6,7-hexahydroimidazo[4,5,1-jk][1]benzazepin-6-yl]amino}butyl]phenyl}acetamide]
2.8 nM | 1.9 nM | CC(CCc1ccc(O)c(F)c1F)NC1CCn2c(=O)[nH]c3cccc(c32)C1O (single isomer, unassigned) [Example 37, 6-{[3-(2,3-Difluoro-4-hydroxyphenyl)-1-methylpropyl]amino}-7-hydroxy-4,5,6,7-tetrahydroimidazo[4,5,1-jk][1]benzazepin-2(1H)-one]
24.3 nM | 18.9 nM | CNC(=O)c1cccc(CCC(C)NC2CCn3c(=O)[nH]c4cccc(c43)C2O)c1 (single isomer, unassigned) [Example 62, 3-[3-{[7-Hydroxy-2-oxo-1,2,4,5,6,7-hexahydroimidazo[4,5,1-jk][1]benzazepin-6-yl]amino}butyl]-N-methylbenzamide]
5.9 nM | 2.3 nM | CC(CCc1ccccc1)N[C@@H]1CCn2c(=O)[nH]c3cccc(c32)[C@H]1O (single isomer, unassigned) [Example 9d, 7-Hydroxy-6-[(1-methyl-3-phenylpropyl)amino]-4,5,6,7-tetrahydroimidazo[4,5,1-jk][1]benzazepin-2(1H)-one]
242 nM | 65.1 nM | CC(/C=C/c1ccccc1F)N[C@@H]1CCn2c(=O)[nH]c3cccc(c32)[C@H]1O (single isomer, unassigned) [Example 40a, 6-{[3-(2-Fluorophenyl)-1-methylprop-2-en-1-yl]amino}-7-hydroxy-4,5,6,7-tetrahydroimidazo[4,5,1-jk][1]benzazepin-2(1H)-one]
7.5 nM | 35.8 nM | COc1ccccc1CCC(C)N[C@@H]1CCn2c(=O)[nH]c3cccc(c32)[C@H]1O (mixture of isomers) [Example 20, 7-Hydroxy-6-{[3-(2-methoxyphenyl)-1-methylpropyl]amino}-4,5,6,7-tetrahydroimidazo[4,5,1-jk][1]benzazepin-2(1H)-one]
> 200 nM | > 300 nM | CC(CCc1cc(Br)cc(Br)c1O)N[C@@H]1CCn2c(=O)[nH]c3cccc(c32)[C@H]1O (mixture of isomers) [Example 47, 6-{[3-(3,5-Dibromo-2-hydroxyphenyl)-1-methylpropyl]amino}-7-hydroxy-4,5,6,7-tetrahydroimidazo[4,5,1-jk][1]benzazepin-2(1H)-one]
0.3 nM | 0.5 nM | CC(CCc1cc(F)ccc1O)N[C@@H]1CCn2c(=O)[nH]c3cccc(c32)[C@H]1O (single isomer, unassigned) [Example 7b, 6-{[3-(5-Fluoro-2-hydroxyphenyl)-1-methylpropyl]amino}-7-hydroxy-4,5,6,7-tetrahydroimidazo[4,5,1-jk][1]benzazepin-2(1H)-one]
167 nM | 78.8 nM | CC(CCc1cccc(C(=O)O)c1)N[C@@H]1CCn2c(=O)[nH]c3cccc(c32)[C@H]1O (single isomer, unassigned) [Example 53]
298 nM | 121 nM | CC(CCc1ccc(O)cc1)N[C@@H]1CCn2c(=O)[nH]c3cccc(c32)[C@H]1O (single isomer, unassigned) [Example 2b, 7-Hydroxy-6-{[3-(4-hydroxyphenyl)-1-methylpropyl]amino}-4,5,6,7-tetrahydroimidazo[4,5,1-jk][1]benzazepin-2(1H)-on]
198 nM | 128 nM | CC(CCc1ccc(C(=O)O)cc1)NC1CCn2c(=O)[nH]c3cccc(c32)C1O (single isomer, unassigned) [Example 68, 4-[3-{[7-Hydroxy-2-oxo-1,2,4,5,6,7-hexahydroimidazo[4,5,1-jk][1]benzazepin-6-yl]amino}butyl]benzoic acid]
1.7 nM | 1.3 nM | CC(CCc1cccc(O)c1Cl)N[C@@H]1CCn2c(=O)[nH]c3cccc(c32)[C@H]1O (single isomer, unassigned) [Example 50, 6-{[3-(2-Chloro-3-hydroxyphenyl)-1-methylpropyl]amino}-7-hydroxy-4,5,6,7-tetrahydroimidazo[4,5,1-jk][1]benzazepin-2(1H)-one]
29.6 nM | 10.7 nM | CC(CCc1ccc(C(F)(F)F)cc1)N[C@@H]1CCn2c(=O)[nH]c3cccc(c32)[C@H]1O (mixture of isomers) [Example 18, 7-Hydroxy-6-({1-methyl-3-[4-(trifluoromethyl)phenyl]propyl}amino)-4,5,6,7-tetrahydroimidazo[4,5,1-jk][1]benzazepin-2(1H)-one]
– | 11.9 nM | CC(CCc1ccccc1NS(C)(=O)=O)N[C@@H]1CCn2c(=O)[nH]c3cccc(c32)[C@H]1O (mixture of isomers) [Example 33, N-[2-(3-{[7-Hydroxy-2-oxo-1,2,4,5,6,7-hexahydroimidazo[4,5,1-jk][1]benzazepin-6-yl]amino}butyl)phenyl]methanesulfonamide]

Compound | EC50 [1] | EC50 [2]
CC(CCc1ccccc1O)N[C@@H]1CCn2c(=O)[nH]c3cccc(c32)[C@H]1O (single isomer, unassigned) [Example 48, Hydrochloride salt of 7-hydroxy-6-{[3-(2-hydroxyphenyl)-1-methylpropyl]amino}-4,5,6,7-tetrahydroimidazo[4,5,1-jk][1]benzazepin-2(1H)-one] | 1 nM | 1.9 nM
CC(CCc1ccccc1O)N[C@@H]1CCn2c(=O)[nH]c3cccc(c32)[C@H]1O (mixture of isomers) [Example 6a, 7-Hydroxy-6-{[3-(2-hydroxyphenyl)-1-methylpropyl]amino}-4,5,6,7-tetrahydroimidazo[4,5,1-jk][1]benzazepin-2(1H)-one] | 1.5 nM | 1.5 nM
